Patent US12396959B2, “Thermoresponsive hydrogel containing polymer microparticles for noninvasive ocular drug delivery” (University of Pittsburgh—Of the Commonwealth System of …, priority 2013, dated 2025)

Assays:
[1] = in vivo; cited from earlier work
[2] = test system: New Zealand White rabbits; assay: Post-mortem T1-weighted MRI after intravitreal injection of Gd-DOTA in thermoresponsive hydrogel; assay type: in vivo, rabbit; conditions: 24 h after intravitreal injection
Experimental: Scans were performed within one hour of sacrifice. Soluble Gd-DOTA without MP encapsulation was largely cleared from the injection site at 24 h, with only 56% and 59% signal intensity (relative to nearby muscle tissue) in the vitreous and anterior chamber, respectively. […] The spatiotemporal distribution of Gd-DOTA into the rest of the eye will also provide valuable data for future controlled release formulations of other ocular therapeutics, such as those targeting the posterior segment of the eye.

[3] = Loading and release of other drugs from microparticles embedded within the gel; assay type: physicochemical
Text: The loading and release of other drugs (moxiflxacin and vancomycin) with the microparticles embedded within the gel has also been confirmed.

For O=C([O-])CN(CCN(CC(=O)[O-])CC(=O)O)CCN(CC(=O)[O-])CC(=O)O.[Gd+3] [Gd-DTPA], the ocular half-life [1] is given as 28.08 min.

With O=C([O-])CN1CCN(CC(=O)[O-])CCN(CC(=O)O)CCN(CC(=O)[O-])CC1.[Gd+3] [Soluble Gd-DOTA, gadolinium-tetraazocyclododecanetetraacetic acid] the “signal intensity relative to nearby muscle tissue, anterior chamber” value [2] was 59% and the “signal intensity relative to nearby muscle tissue, vitreous” value [2] was 56%.

In the case of CN[C@H](CC(C)C)C(=O)N[C@H]1C(=O)N[C@@H](CC(N)=O)C(=O)N[C@H]2C(=O)N[C@H]3C(=O)N[C@H](C(=O)N[C@H](C(=O)O)c4cc(O)cc(O)c4-c4cc3ccc4O)[C@H](O)c3ccc(c(Cl)c3)Oc3cc2cc(c3O[C@@H]2O[C@H](CO)[C@@H](O)[C@H](O)[C@H]2O[C@H]2C[C@](C)(N)[C@H](O)[C@H](C)O2)Oc2ccc(cc2Cl)[C@H]1O [vancomycin], the “loading and release with microparticles embedded within the gel” value [3] is reported as “confirmed”.

For Brimonidine tartrate [BT], the ocular half-life [1] is given as 28.2 min.
